Test results as given in patent publication US20080039816A1, “Carbohydrate-Encapsulated Quantum Dots for Bilogical Imaging” (The Government of the United States of America as …, priority 2004, published 2008).

Assay: Storage stability of thiol ligands (dimerization to disulfide)
Type: physicochemical
Procedure: In a second, alternative approach for hydrolysis, the debenzylidinated thioester (300 mg) was dissolved in methanol (5 ml). […] Air was bubbled through the solution and the solution was stirred at room temperature and allowed to react for 24 hours. […] The Thomsen-Friedenreich-disulfide of formula VII (130 mg) was then dissolved in distilled water (1 ml) and degassed with argon for 20 minutes. Dithiothreitol (130 mg) was added and the solution allowed to react for 20 minutes. The excess dithiothreitol was then removed by several extractions with ethyl acetate. The residue was then purified by reverse phase flash chromatography on a C-18 column with an aqueous solution of methanol (10%-40% (v/v)) to yield the Thomsen-Friedenreich-thiol of formula VI.
After 30 min, the reaction was carefully neutralized with strongly acidic ion-exchange resin Amberlite®-120, filtered and concentrated. Purification was accomplished on a Strata® SI-1 silica gel cartridge eluting with 20% MeOH in CH2Cl2.

## CC(=O)NC1C(OCCCCCS)OC(CO)C(O)C1OC1OC(CO)C(O)C(O)C1O (centres unmarked) [formula 3]
Room temperature
  stability upon standing at room temperature: oxidizes to the Thomsen-Friedenreich-disulfide of formula VII
Stored at −20° C. (under argon)
  storage stability (dimerization): without significant dimerization for weeks
